# What was measured:
# Format in all cases: cell-based, human
# [1] = test system: A549 and H2009 cells; test: CyTOF profiling of lung cancer cell lines
# Method: Cytometry by time of flight mass spectrometry (CyTOF). Antibodies were conjugated according to the manufacturer's instructions (Fluidigm, South San Francisco, Calif.) or purchased in pre-conjugated forms from the supplier (Fluidigm). […] The cells were harvested and stained with cisplatin (Fluidigm) and metal-conjugated surface antibodies sequentially for viability and surface staining. After fixation and permeabilization, the intracellular staining with metal-conjugated antibodies was performed. The cells were then labeled with an iridium-containing DNA intercalator (^191Ir^+, ^193Ir^+) to identify cell events before analysis on a Helios mass cytometer (Fluidigm). Signals were bead-normalized using EQ Four Element Calibration Beads (Fluidigm). Signals of samples were normalized using CyTOF software (Version 6.7.1014, Fluidigm). The generated files underwent signal cleanup and filtering for live/dead cells using Cytobank (https://www.cytobank.org/, Cytobank Inc.) and download gated Flow Cytometry Standard (FCS) file for further analysis using Cytofkit based on PhenoGraph algorithm, which was implemented in R and freely available from the Bioconductor website (https://bioconductor.org/packages/cytofkit/). CyTOF data was visualized using t-distributed stochastic neighbor embedding (t-SNE) algorithm and plotted on a continuum of protein expression with phenotypically related cells clustered together.
# Cytometry by time-of-flight (CyTOF). Antibodies were conjugated in-house according to the manufacturer's instructions or purchased in pre-conjugated forms from the supplier (Fluidigm; Table 5). Single cells from cell lines, tumors, or PBMCs were harvested and stained with cisplatin and metal-conjugated surface antibodies sequentially for viability and surface staining. After fixation and permeabilization, cells were stained with metal-conjugated antibodies. The cells were then labeled with an iridium-containing DNA intercalator (^191Ir^+ or ^193Ir^+) for identification of cell events before analysis on a Helios mass cytometer. Signals were bead-normalized using EQ Four Element Calibration Beads.
# Signals of samples were normalized using CyTOF software (Version 6.7.1014, Fluidigm). The generated files underwent signal cleanup and filtering for single cells using Cytobank (https://www.cytobank.org/). The gated Flow Cytometry Standard (FCS) file were downloaded for further analysis using Cytofkit. The PhenoGraph clustering algorithm in Cytofkit was implemented in R from the Bioconductor website (https://bioconductor.org/packages/cytofkit/). […] Epithelial and mesenchymal indices were calculated based on the average Z-score of epithelial and mesenchymal markers. […]
# [2] = test system: H2009 cells; test: Atomic force microscopy, H2009
# Description: (§1) Atomic force microscopy. […] Briefly, live cells cultured were imaged in 60 mm dishes with a Nanoscope Catalyst AFM (Bruker, Billerica, Mass.) mounted on a Nikon Ti inverted epifluorescent microscope. […] To collect the nanomechanical phenotypes of single cells immersed in culture media, 30×30 μm images were captured with a resolution of 256×256 pixels using the PeakForce Quantitative Nanomechanical Mapping (QNM) AFM (Bruker, Billerica, Mass.). For imaging, […]-AIR (Bruker, Billerica, Mass.) probes were applied with the nominal spring constant 0.4 N/m. Following the Sneddon model and the Sokolov's rules, nanomechanical parameters were calculated with Nanoscope Analysis software v.1.7 (Bruker, Billerica, Mass.) using retrace images. Images of at least 15 cells representing each tested case in three biological replicates were collected.
# (§2) Atomic force microscopy (AFM). […] Briefly, live cells cultured in 60 mm dishes were imaged with a Nanoscope Catalyst AFM (Bruker) mounted on a Nikon Ti inverted epifluorescent microscope. […] To collect the nanomechanical phenotypes of single cells immersed in culture media, 30×30 μm images were captured with a resolution of 256×256 pixels using the Peak Force Quantitative Nanomechanical Mapping (QNM) AFM (Bruker). For imaging, […]-AIR probes were used with the nominal spring constant 0.4 N/m. Following the Sneddon model and the Sokolov's rules, nanomechanical parameters were calculated with Nanoscope Analysis software v.1.7 using retrace images.
# [3] = test system: A549 cells; test: Atomic force microscopy, A549; conditions: A549, 40 nmol/L, 24 hr
# Description: as §1, §2
# [4] = test system: A549 and H2009 cells; test: CellTiter-Glo cell viability, TP-0903 and/or ruxolitinib; conditions: 20, 30 and 40 nmol/L, 72 hr
# Method: Cell lines. A549 and H2009 cell lines were obtained from and authenticated by the American Type Culture Collection, and routinely maintained in RPMI-1640 medium supplemented 10% FBS, penicillin (100 units/mL) and streptomycin ([…]) in aired with 5% CO^2 at 37° C. The absence of Mycoplasma contamination was validated using DAPI staining. […] The CellTiter-Glo Luminescent Cell Viability assay was used to determine cell responsiveness. shRNA knockdown was performed in A549 cells by using lentiviral delivery of short-hairpin AXL or vehicle plasmid pLKO.1 puro in two biological repeats (Addgene; Table 3).
compound,measurement,setting,value
CN1CCN(Cc2ccc(Nc3ncc(Cl)c(Nc4ccccc4S(=O)(=O)N(C)C)n3)cc2)CC1 [TP-0903],phosphorylated STAT3 (pSTAT3) levels (CyTOF),"[1]; A549, 40 nmol/L",dramatically increased
same,SMAD4 (CyTOF),"[1]; A549 subpopulations #6-8, 40 nmol/L",suppressed
same,JAK1-pSTAT3 expression (CyTOF),[1]; H2009 subpopulations #15 and 16 after treatment,amplified
same,CD133 (CyTOF),"[1]; cell lines, 40 nmol/L",elevated
same,deformation,[2]; H2009,not significantly affected
same,increase of adhesion,"[2]; H2009, 40 nmol/L, 24 hr",35%
same,increase of stiffness,"[2]; H2009, 40 nmol/L, 24 hr",61%
same,decreased deformation,[3],25%
same,increase in stiffness,[3],3 fold
same,increased adhesion,[3],50%
same,"sensitivity (cell viability), A549 compared with H2009",[4],more sensitive

# From patent publication US20220308062A1, “METHODS FOR PREDICTING DRUG RESPONSIVENESS IN SAMPLES FROM CANCER SUBJECTS” (Board of Regents, The University of Texas System, priority 2019, published 2022)
